Assay results taken from US20240358611A1, “COMPOSITIONS” (SYMRISE AG, priority 2021, published 2024).

Legend:
[1] = test system: LPS-stimulated, pro-inflammatory synthesis of IL-1B in RAW macrophages; test: LPS-stimulated IL-1B synthesis in RAW 264.7 macrophages (ELISA); type: cell-based, mouse; details: LPS 10 ng/ml, 24 h
Description: (§1) RAW 264.7 (mouse macrophage tumor cells) cells were provided from the University of Cordoba in Spain and maintained in RPMI1640 medium containing FCS.
(§2) Cells are seeded in 24-well-plates (approx. 500 000 cells/ml in 1 ml) for ELISA experiments.
(§3) Cells are incubated without or with LPS (10 ng/ml) for 24 h. The pyrozol derivates or additives such as Thymol or Menthol (3 doses, 1, 10, 100 μM) are added 30 min before LPS treatment as single dose or in combination. […] After 24 h, supernatants are removed, centrifuged, and investigated for PGE2 concentrations in EIA (PGE2, from Cayman, isoprostane from Cayman) or ELISA (IL-1B, IL-6, TNF-alpha, Biotechne)). Each dose is investigated 2 times.
(§4) Optimal dose range for additives and substituted azacycles was determined in a preliminary assays dose finding assay (data not shown). Thus, test items are investigated at 10 μM 100 μM or any combination of the two doses for additive effects. Synergism is defined as additive effect surpassing the hypothetical mathematical value of effective doses. The hypothetical value is depicted in all graphs as dashed line.

[2] = test system: LPS-stimulated, pro-inflammatory synthesis of PGE2 in RAW macrophages; test: LPS-stimulated PGE2 synthesis in RAW 264.7 macrophages (EIA); type: cell-based, mouse; details: 10 μM in combination with 10 μM Thymol, LPS 10 ng/ml, 24 h
Description: as §1, §2, §3, §4

[3] = in combination with Menthol, 10 μM or 100 μM each, all tested combinations
[4] = in combination with Thymol, 10 μM or 100 μM each

Row | Structure (SMILES) | effect on LPS-stimulated IL-1 beta synthesis [1, 3] | effect on LPS-stimulated IL-1 beta synthesis [1, 4] | effect on LPS-stimulated PGE2 synthesis [2] | effect on LPS-stimulated IL-1 beta synthesis ([1]; applied as single substance)
1 | CSC(C)C(=O)N1CCCC[C@@H]1c1ncc(-c2ccc(C)cc2)[nH]1 (stereo partly drawn) [CoNo11, 2-methylsulfanyl-1-[(1R)-2-[5-(p-tolyl)-1H-imidazol-2-yl]-1-piperidyl]-propan-1-one] | strong inhibition of IL-1 beta synthesis | strong synergistic soothing effect | – | –
2 | CCC(C)C(=O)N1CCCCC1c1ncc(-c2ccc(C)cc2)[nH]1 (stereo not drawn) [CoNo164, 2-methyl-1-[2-[5-(p-tolyl)-1H-imidazol-2-yl]-1-piperidyl]butan-1-one] | strong inhibition of IL-1 beta synthesis | strong synergistic soothing effect | synergistically mitigated PGE2 synthesis | –
3 | CC[C@H](C)C(=O)N1CCCCC1c1ncc(-c2ccc(C)cc2)[nH]1 (stereo partly drawn) [CoNo166, (2S)-2-methyl-1-[2-[5-(p-tolyl)-1H-imidazol-2-yl]-1-piperidyl]butan-1-one] | strong inhibition of IL-1 beta synthesis | strong synergistic soothing effect | synergistically mitigated PGE2 synthesis | –
4 | CC1CCC(C(C)C)C(O)C1 (stereo not drawn) [Menthol] | – | – | – | stimulates IL-1 beta synthesis
